What was measured:
[1] = tested on: TC-71 (Ewing's sarcoma) cells; test: Cell proliferation assay, TC-71 (Alamar Blue); format: cell-based; conditions: 72 h with compound, EC50 ranges as class symbols
Procedure: Cell Proliferation Assays
Compounds were tested for their anti-proliferative effects in the TC-71 (Ewing's sarcoma) and HCT 116 (colorectal carcinoma) cancer cell lines in vitro. Published scientific data has described that interference with the Insulin-like Growth Factor-1 Receptor (IGF-1R) signaling pathway reduces the proliferation of TC-71 cells. Therefore TC-71 cells served as a positive control cell line for monitoring the activity of compounds against IGF-1R-mediated cell proliferation. […] Therefore the HCT 116 cell line served as a negative control.
2000 TC-71 cells or 1000 HCT 116 cells were seeded per well in 180 μL IMDM+10% foetal calf serum (FCS)+ penicillin/streptomycin into 96-well microtitre plates. The plates were placed in a cell culture incubator (37° C. in a humidified atmosphere of […]/5 CO2) overnight. The following day, serial dilutions of compounds, prepared in duplicates, were transferred onto the cell layers (controls without compound). The cells were cultivated for a further 72 h in the cell culture incubator. 20 μL of Alamar Blue™ (Serotec Ltd, Düsseldorf, Germany) was added to each well and the plates incubated for 7 h in the cell culture incubator. Fluorescence (extinction wavelength of 544 nm and emission at 590 nm) was then measured and the normalized data fitted by iterative calculation with a sigmoidal curve analysis program (Graph Pad Prism) with a variable Hill slope to determine the IC50 values.

[2] = target: T1, cytoplasmic kinase domain of human IGF-1R (IGF-1R-GST) (Homo sapiens, UniProt P08069); test: Insulin-like growth factor-1 receptor (IGF-1R) kinase assay (DELFIA); format: biochemical; conditions: IGF-1R-GST kinase activity, read-out: IGF1R IC50
T1 construct: cytoplasmic kinase domain of human IGF-1R (amino acids 964-1370); GST (glutathione-S-transferase); made in house; host or cells: High Five insect cells (Invitrogen)
T1 sequence (P08069 964-1367 limits assumed): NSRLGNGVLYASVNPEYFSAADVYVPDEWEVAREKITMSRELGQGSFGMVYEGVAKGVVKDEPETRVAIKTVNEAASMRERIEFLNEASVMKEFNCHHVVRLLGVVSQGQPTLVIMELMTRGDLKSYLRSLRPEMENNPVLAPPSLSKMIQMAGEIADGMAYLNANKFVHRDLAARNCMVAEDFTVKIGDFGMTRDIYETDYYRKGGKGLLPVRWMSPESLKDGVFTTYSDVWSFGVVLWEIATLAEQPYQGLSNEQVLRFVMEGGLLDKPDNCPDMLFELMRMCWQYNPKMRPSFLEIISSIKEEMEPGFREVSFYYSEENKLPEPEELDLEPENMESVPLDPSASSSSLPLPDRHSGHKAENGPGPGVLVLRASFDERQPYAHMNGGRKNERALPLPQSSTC
Outline: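 GST-tagged IGF-1R cytoplasmic kinase domain phosphorylates pEY with biotinylated pEY for 40 min at RT; EDTA stop. Product captured on streptavidin, detected with europium anti-phosphotyrosine antibody by DELFIA time-resolved fluorescence; IC50 from inhibition curves.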

## CCc1cc(C2CCCN(CCOC)C2)ccc1Nc1ncc(Br)c(NCc2cccc3c2C(C)(C)C(=O)N3)n1 (racemic) [Example I-368]
[1]
  EC50: < 50 nM
[2]
  IC50: 2 nM

## COCCN1CCCC(c2ccc(Nc3ncc(Cl)c(NCc4cccc5c4C(C)(C)C(=O)N5)n3)c(OC)c2)C1 (racemic) [Example I-371]
[1]
  EC50: < 50 nM
[2]
  IC50: 0.8 nM

## COc1cc(C2CCCN(CCO)C2)ccc1Nc1ncc(Cl)c(NCc2cccc3c2C(C)(C)C(=O)N3)n1 (racemic) [Example I-372]
[1]
  EC50: < 50 nM
[2]
  IC50: 0.8 nM

## COCCN1CCCC(c2ccc(Nc3ncc(Cl)c(NCc4cccc5c4C(C)(C)C(=O)N5)n3)c(C)c2)C1 (racemic) [Example I-373]
[1]
  EC50: 50 to 250 nM
[2]
  IC50: 0.4 nM

## CNC(=O)CN1CCCC(c2ccc(Nc3ncc(Cl)c(NCc4cccc5c4C(C)(C)C(=O)N5)n3)cc2)C1 (racemic) [Example I-379]
[1]
  EC50: 50 to 250 nM
[2]
  IC50: 6 nM

## COCCN1CCCC(c2ccc(Nc3ncc(Cl)c(NCc4cccc5c4C(C)(C)C(=O)N5)n3)cc2)C1 (racemic) [Example I-380]
[1]
  EC50: 50 to 250 nM
[2]
  IC50: 2 nM

## CC1(C)C(=O)Nc2cccc(CNc3nc(Nc4ccc(C5CCCN(CCO)C5)cc4)ncc3Cl)c21 (racemic) [Example I-381]
[1]
  EC50: 50 to 250 nM
[2]
  IC50: 0.9 nM

## Cc1cc(C2CCCN(CCO)C2)ccc1Nc1ncc(Cl)c(NCc2cccc3c2C(C)(C)C(=O)N3)n1 (racemic) [Example I-382]
[1]
  EC50: < 50 nM
[2]
  IC50: 1 nM

## CNC(=O)CN1CCCC(c2ccc(Nc3ncc(Cl)c(NCc4cccc5c4C(C)(C)C(=O)N5)n3)c(C)c2)C1 (racemic) [Example I-383]
[1]
  EC50: 50 to 250 nM
[2]
  IC50: 2 nM

## CCc1cc(C2CCCN(CCOC)C2)ccc1Nc1ncc(Cl)c(NCc2cccc3c2C(C)(C)C(=O)N3)n1 (racemic) [Example I-384]
[1]
  EC50: 50 to 250 nM
[2]
  IC50: 6 nM

## COc1cc(N2CCNCC2)ccc1Nc1ncc(C(F)(F)F)c(NCc2cccc3c2C(C)(C)C(=O)N3)n1 [Example I-31]
[1]
  EC50: < 50 nM
[2]
  IC50: 0.7 nM

## CC1(C)C(=O)Nc2cccc(CNc3nc(Nc4ccc(C5CCN(C(=O)C6CCCC(=O)N6)CC5)cc4)ncc3Br)c21 (stereo not shown) [Example I-53]
[1]
  EC50: 50 to 250 nM
[2]
  IC50: 6 nM

## CC(C)(O)C(=O)N1CCC(c2ccc(Nc3ncc(Br)c(NCc4cccc5c4C(C)(C)C(=O)N5)n3)cc2)CC1 [Example I-54]
[1]
  EC50: 50 to 250 nM
[2]
  IC50: 7 nM

## CC1(C)C(=O)Nc2cccc(CNc3nc(Nc4ccc(C5CCN(C(=O)C6CCCN6)CC5)cc4)ncc3Br)c21 (stereo not shown) [Example I-55]
[1]
  EC50: 50 to 250 nM
[2]
  IC50: 1 nM

## CC1(C)C(=O)Nc2cccc(CNc3nc(Nc4ccc(C5CCN(C(=O)C6CCN6)CC5)cc4)ncc3Br)c21 (stereo not shown) [Example I-56]
[1]
  EC50: 250 to 3000 nM
[2]
  IC50: 2 nM

## Cc1cc(C2CCN(C(=O)CN(C)C)CC2)ccc1Nc1ncc(Br)c(NCc2cccc3c2C(C)(C)C(=O)N3)n1 [Example I-57]
[1]
  EC50: < 50 nM
[2]
  IC50: 0.76 nM

## CN(C)CC(=O)N1CCC(n2cc(Nc3ncc(Cl)c(NCc4cccc5c4C(C)(C)C(=O)N5)n3)cn2)CC1 [Example I-66]
[1]
  EC50: 250 to 3000 nM
[2]
  IC50: 6 nM

## Cc1cc(C2CCN(C(=O)N(C)C)CC2)ccc1Nc1ncc(Cl)c(NCc2cccc3c2C(C)(C)C(=O)N3)n1 [Example I-67]
[1]
  EC50: 50 to 250 nM
[2]
  IC50: 15 nM

## COc1cc(C2CCN(C(=O)CN(C)C)CC2)ccc1Nc1ncc(Br)c(NCc2cccc3c2C(C)(C)C(=O)N3)n1 [Example I-68]
[1]
  EC50: < 50 nM
[2]
  IC50: 0.4 nM

## Cc1cc(C2CCN(C(=O)CN(C)C)CC2)ccc1Nc1ncc(Cl)c(NCc2cccc3c2C(C)(C)C(=O)N3)n1 [Example I-69]
[1]
  EC50: < 50 nM
[2]
  IC50: 1 nM

## COc1cc(N2CCN(C)CC2)ccc1Nc1ncc(Cl)c(NCc2cccc3c2C(C)(C)C(=O)N3)n1 [Example I-97]
[1]
  EC50: < 50 nM
[2]
  IC50: 2 nM

## CN1CCC(n2cc(Nc3ncc(Cl)c(NCc4cccc5c4C(C)(C)C(=O)N5)n3)cn2)CC1 [Example I-102]
[1]
  EC50: 50 to 250 nM
[2]
  IC50: 4 nM

## Cc1cc(C2CCN(CC(C)(C)O)CC2)c(C)cc1Nc1ncc(Cl)c(NCc2cccc3c2C(C)(C)C(=O)N3)n1 [Example I-338]
[1]
  EC50: 250 to 3000 nM

## CNC(=O)CN1CCC(c2ccc(Nc3ncc(Cl)c(NCc4cccc5c4C(C)(C)C(=O)N5)n3)c(C)c2)CC1 [Example I-370]
[1]
  EC50: < 50 nM

From patent publication US8546443B2, “Benzylic oxindole pyrimidines” (Boehringer Ingelheim International GmbH, priority 2010, dated 2013)
